Data from patent publication US12496306B2 (REMEDY PHARMACEUTICALS, INC., priority 2021, dated 2025).

Assay: Compounding experiments, bulk solution stability in Tris buffer
Type: physicochemical
Settings: 1 mg/ml, at least 24 h, room temperature
Excerpt: This is because Tris buffers effectively in the range of pH 7-9 (i.e. ±1 pH unit from pKa of 8.1). Outside of this pH range, the bulk solution is no longer buffered even with the addition of Tris. To maintain bulk solution stability, it is necessary to increase the compounding pH above 9, which is outside of the buffering range of Tris.

In the case of COc1ccc(Cl)cc1C(=O)NCCc1ccc(S(=O)(=O)NC(=O)NC2CCCCC2)cc1 [glibenclamide, 5-chloro-N-(4-[N-(cyclohexylcarbamoyl)sulfamoyl]phenethyl)-2-methoxybenzamide], the “minimum compounding pH required to maintain bulk solution stability” value is reported as at least 9.1.
